Assay results: patent US7276502B2, “Thiazoles useful as inhibitors of protein kinases” (Vertex Pharmaceuticals Incorporated, priority 2003, dated 2007)
Where two headings read alike, the source gives them in different places.

Key:
SYK = SYK (Homo sapiens, UniProt P43405); experiment: SYK inhibition assay (standard coupled enzyme assay); assay type: biochemical
Protocol: Reactions were carried out in 100 mM HEPES (pH 7.5), 10 mM MgCl2, 25 mM NaCl, 1 mM DTT and 1.5% DMSO. Final substrate concentrations in the assay were 200 μM ATP (Sigma chemical Co.) and 4 μM poly Gly-Tyr peptide (Sigma Chemical Co.). Assays were carried out at 30° C. and 200 nM SYK. Final concentrations of the components of the coupled enzyme system were 2.5 mM phosphoenolpyruvate, 300 μM NADH, 30 μg/ml pyruvate kinase and 10 μg/ml lactate dehydrogenase.
An assay stock buffer solution was prepared containing all of the reagents listed above, with the exception of SYK, DTT, and the test compound of interest of the present invention. 56 μl of the test reaction was placed in a 96 well plate followed by the addition of 1 μl of 2 mM DMSO stock containing the test compound of the present invnetion (final compound concentration 30 μM).

ZAP-70 = target: T1, ZAP-70 (Homo sapiens, UniProt P43403); experiment: ZAP-70 inhibition assay (standard coupled enzyme assay); assay type: biochemical; conditions: 100 μM ATP, 20 μM poly-4EY peptide, 30° C., 60 nM ZAP-70
T1 sequence (P43403 1-619): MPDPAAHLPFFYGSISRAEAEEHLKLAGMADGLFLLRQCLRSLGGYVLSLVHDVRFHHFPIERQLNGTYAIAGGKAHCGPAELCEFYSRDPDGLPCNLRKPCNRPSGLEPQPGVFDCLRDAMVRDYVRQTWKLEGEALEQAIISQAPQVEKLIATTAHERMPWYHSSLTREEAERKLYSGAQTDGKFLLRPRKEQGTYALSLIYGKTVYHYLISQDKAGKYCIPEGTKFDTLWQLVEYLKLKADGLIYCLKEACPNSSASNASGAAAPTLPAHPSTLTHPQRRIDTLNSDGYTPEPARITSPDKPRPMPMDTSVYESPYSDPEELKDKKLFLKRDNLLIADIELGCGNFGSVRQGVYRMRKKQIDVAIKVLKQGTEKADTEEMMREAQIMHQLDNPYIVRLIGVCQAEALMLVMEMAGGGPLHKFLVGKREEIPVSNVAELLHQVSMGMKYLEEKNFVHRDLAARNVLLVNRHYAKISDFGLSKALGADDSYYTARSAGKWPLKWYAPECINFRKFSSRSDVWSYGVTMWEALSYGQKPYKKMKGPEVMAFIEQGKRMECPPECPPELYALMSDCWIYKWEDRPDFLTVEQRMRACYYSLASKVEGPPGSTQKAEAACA
Protocol: Compounds were screened for their ability to inhibit ZAP-70 using a standard coupled enzyme assay (Fox et al., Protein Sci. 1998, 7, 2249). Assays were carried out in a mixture of 100 mM HEPES (pH 7.5), 10 mM MgCl2, 25 mM NaCl, 2 mM DTT and 3% DMSO. Final substrate concentrations in the assay were 100 μM ATP (Sigma Chemicals) and 20 μM peptide (poly-4EY, Sigma Chemicals). Assays were carried out at 30° C. and 60 nM ZAP-70. Final concentrations of the components of the coupled enzyme system were 2.5 mM phosphoenolpyruvate, 300 μM NADH, 30 μg/ml pyruvate kinase and 10 μg/ml lactate dehydrogenase.
An assay stock buffer solution was prepared containing all of the reagents listed above, with the exception of ZAP-70 and the test compound of interest of the present invention. 55 μl of the stock solution was placed in a 96 well plate followed by addition of 2 μl of DMSO stock containing serial dilutions of the test compound of the present invention (typically starting from a final concentration of 15 μM). The plate was preincubated for 10 minutes at 30° C. and the reaction initiated by addition of 10 μl of enzyme (final concentration 60 nM). Initial reaction rates were determined with a Molecular Devices SpectraMax Plus plate reader over a 15 minute time course. Ki data was calculated from non-linear regression analysis using the Prism software package (GraphPad Prism version 3.0a for Macintosh, GraphPad Software, San Diego Calif., USA).

[1] = coupled enzyme assay, 200 μM ATP, 4 μM poly Gly-Tyr peptide, 30° C., read-out: Ki (SYK)

Structure (SMILES)	Ki (SYK; [1])	Ki (ZAP-70)	Ki (SYK)
Cc1cc(C)cc(Nc2nccc(-c3nc(COC(N)=O)cs3)n2)c1 [Example I-77]	≤ 5 µM	≤ 5 µM	–
CC(=O)Nc1cccc(Nc2nccc(-c3ncc(C)s3)n2)c1 [Example I-78]	≤ 5 µM	≤ 5 µM	–
Cc1cnc(-c2ccnc(Nc3ccc([N+](=O)[O-])cc3)n2)s1 [Example I-79]	≤ 5 µM	≤ 5 µM	–
Cc1cnc(-c2ccnc(NC3CCCC3)n2)s1 [Example I-81]	≤ 5 µM	≤ 5 µM	–
COc1cc(Nc2nccc(-c3ncc(CO)s3)n2)cc(C(F)(F)F)c1 [Example I-83]	≤ 5 µM	≤ 5 µM	–
COc1cc(Nc2nccc(-c3nc(CO)cs3)n2)cc(C(F)(F)F)c1 [Example I-84]	–	≤ 5 µM	≤ 5 µM
CCCc1cnc(-c2ccnc(Nc3cc(C)cc(C)c3)n2)s1 [Example I-85]	≤ 5 µM	≤ 5 µM	–
Cc1cc(C)cc(Nc2nccc(-c3ncc(CN4CCC[C@H]4CO)s3)n2)c1 [Example I-86]	≤ 5 µM	≤ 5 µM	–
Cc1cc(C)cc(Nc2nccc(-c3ncc(CN(C)CCO)s3)n2)c1 [Example I-87]	≤ 5 µM	≤ 5 µM	–
Cc1cc(C)cc(Nc2nccc(-c3ncc(CNCCCO)s3)n2)c1 [Example I-88]	≤ 5 µM	≤ 5 µM	–
Cc1cnc(-c2ccnc(Nc3cc(N)cc(C(F)(F)F)c3)n2)s1 [Example I-89]	≤ 5 µM	≤ 5 µM	–
Cc1cnc(-c2ccnc(Nc3cccc(C#N)c3)n2)s1 [Example I-90]	≤ 5 µM	≤ 5 µM	–
Cc1cnc(-c2ccnc(Nc3ccc(N4CCOCC4)cc3)n2)s1 [Example I-91]	≤ 5 µM	≤ 5 µM	–
Cc1cnc(-c2ccnc(Nc3ccc(N(C)C)cc3)n2)s1 [Example I-92]	≤ 5 µM	≤ 5 µM	–
Cc1cc(C)cc(Nc2nccc(-c3ncc(N4CCNCC4)s3)n2)c1 [Example I-93]	≤ 5 µM	≤ 5 µM	–
Cc1cc(C)cc(Nc2nccc(-c3ncc(N(C)C)s3)n2)c1 [Example I-94]	≤ 5 µM	≤ 5 µM	–
Cc1cnc(-c2ccnc(Nc3ccccc3Oc3ccccc3)n2)s1 [Example I-95]	≤ 5 µM	≤ 5 µM	–
Cc1cnc(-c2ccnc(Nc3ccc(F)cc3F)n2)s1 [Example I-97]	≤ 5 µM	≤ 5 µM	–
Cc1cnc(-c2ccnc(Nc3c(C)cccc3C)n2)s1 [Example I-100]	≤ 5 µM	≤ 5 µM	–

Structure (SMILES)	Ki (SYK; [1])	Ki (ZAP-70)	Ki (SYK)
Cc1cnc(-c2ccnc(Nc3ccc(O)c(C)c3)n2)s1 [Example I-102]	≤ 5 µM	≤ 5 µM	–
CCCc1ccccc1Nc1nccc(-c2ncc(C)s2)n1 [Example I-103]	≤ 5 µM	≤ 5 µM	–
COC(=O)c1ccc(Nc2nccc(-c3ncc(C)s3)n2)cc1C [Example I-106]	≤ 5 µM	≤ 5 µM	–
Cc1cnc(-c2ccnc(Nc3cc(O)cc(C(F)(F)F)c3)n2)s1 [Example I-109]	≤ 5 µM	≤ 5 µM	–
Cc1cnc(-c2ccnc(Nc3ccc(NC(=O)OC(C)(C)C)cc3)n2)s1 [Example I-110]	≤ 5 µM	≤ 5 µM	–
Cc1cnc(-c2ccnc(Nc3cccc(CO)c3)n2)s1 [Example I-111]	≤ 5 µM	≤ 5 µM	–
Cc1cnc(-c2ccnc(Nc3ccc4sc(C)nc4c3)n2)s1 [Example I-114]	≤ 5 µM	≤ 5 µM	–
CNC(=O)c1cnc(-c2ccnc(Nc3cc(C)cc(C)c3)n2)s1 [Example I-115]	≤ 5 µM	≤ 5 µM	–
CC(=O)c1ccc(Nc2nccc(-c3ncc(C)s3)n2)cc1 [Example I-116]	≤ 5 µM	≤ 5 µM	–
Cc1cc(C)cc(Nc2nccc(-c3ncc(C(=O)O)s3)n2)c1 [Example I-118]	≤ 5 µM	≤ 5 µM	–
Cc1cc(C)cc(Nc2nccc(-c3nc(C)c(CCOC4CCCCO4)s3)n2)c1 (stereo not shown) [Example I-119]	≤ 5 µM	≤ 5 µM	–
Cc1cnc(-c2ccnc(Nc3ccc(C(C)(C)C)cc3)n2)s1 [Example I-120]	≤ 5 µM	≤ 5 µM	–
COC(=O)c1cc(Nc2nccc(-c3ncc(C)s3)n2)cc(C(=O)OC)c1 [Example I-121]	≤ 5 µM	≤ 5 µM	–
COc1cc(Nc2nccc(-c3ncc(C)s3)n2)cc(OC)c1OC [Example I-122]	≤ 5 µM	≤ 5 µM	–
Cc1cc(C)cc(Nc2nccc(-c3nc(C)c(CCO)s3)n2)c1 [Example I-123]	–	≤ 5 µM	≤ 5 µM
Cc1cc(C)cc(Nc2nccc(-c3ncc(CNc4cccnc4)s3)n2)c1 [Example I-124]	≤ 5 µM	≤ 5 µM	–
Cc1cc(C)cc(Nc2nccc(-c3ncc(CNc4ccncc4)s3)n2)c1 [Example I-125]	≤ 5 µM	≤ 5 µM	–
Cc1cnc(-c2ccnc(Nc3ccc4c(c3)OCCO4)n2)s1 [Example I-127]	≤ 5 µM	≤ 5 µM	–
Cc1cnc(-c2ccnc(Nc3ccc4[nH]nnc4c3)n2)s1 [Example I-128]	≤ 5 µM	≤ 5 µM	–

Structure (SMILES)	Ki (SYK; [1])	Ki (ZAP-70)	Ki (SYK)
CSc1cccc(Nc2nccc(-c3ncc(C)s3)n2)c1 [Example I-130]	≤ 5 µM	≤ 5 µM	–
CSc1ccc(Nc2nccc(-c3ncc(C)s3)n2)cc1 [Example I-131]	≤ 5 µM	≤ 5 µM	–
Cc1cc(C)cc(Nc2nccc(-c3ncc(C(=O)N4CCNCC4)s3)n2)c1 [Example I-134]	≤ 5 µM	≤ 5 µM	–
Cc1cnc(-c2ccnc(Nc3ccc4ncsc4c3)n2)s1 [Example I-135]	≤ 5 µM	≤ 5 µM	–
Cc1cnc(-c2ccnc(Nc3ccc4[nH]nc(C)c4c3)n2)s1 [Example I-136]	≤ 5 µM	≤ 5 µM	–
Cc1cc(C)cc(Nc2nccc(-c3ncc(C(=O)Nc4ccccc4)s3)n2)c1 [Example I-137]	≤ 5 µM	≤ 5 µM	–
Cc1cc(C)cc(Nc2nccc(-c3ncc(C(=O)NCCN)s3)n2)c1 [Example I-138]	≤ 5 µM	≤ 5 µM	–
Cc1cnc(-c2ccnc(Nc3ccc(N)cc3)n2)s1 [Example I-140]	≤ 5 µM	≤ 5 µM	–
Cc1cc(C)cc(Nc2nccc(-c3ncc(CNc4ccccc4)s3)n2)c1 [Example I-141]	≤ 5 µM	≤ 5 µM	–
Cc1cc(C)cc(Nc2nccc(-c3ncc(NCCN)s3)n2)c1 [Example I-142]	≤ 5 µM	≤ 5 µM	–
COc1cc(Nc2nccc(-c3ncc(Cl)s3)n2)cc(OC)c1OC [Example I-143]	≤ 5 µM	≤ 5 µM	–
OCc1cnc(-c2ccnc(Nc3cc(O)cc(C(F)(F)F)c3)n2)s1 [Example I-144]	≤ 5 µM	≤ 5 µM	–
COc1cc(Nc2nccc(-c3ncc(N4CCNCC4)s3)n2)cc(OC)c1OC [Example I-145]	≤ 5 µM	≤ 5 µM	–
OCc1csc(-c2ccnc(Nc3cc(O)cc(C(F)(F)F)c3)n2)n1 [Example I-146]	–	≤ 5 µM	≤ 5 µM
CC(=O)OCc1cnc(-c2ccnc(Nc3ccccc3OCc3ccccc3)n2)s1 [Example I-149]	≤ 5 µM	≤ 5 µM	–
OCc1cnc(-c2ccnc(Nc3ccccc3OCc3ccccc3)n2)s1 [Example I-150]	≤ 5 µM	≤ 5 µM	–
Cc1cnc(-c2ccnc(Nc3ccncc3)n2)s1 [Example I-152]	≤ 5 µM	≤ 5 µM	–
Cc1cnc(-c2ccnc(Nc3ccc(NC(=O)CCNC(=O)OC(C)(C)C)cc3)n2)s1 [Example I-153]	≤ 5 µM	≤ 5 µM	–
